Where two headings read alike, the source gives them in different places. Where a SMILES comes first, the peptide text is derived from it. [ ]: non-standard residue; d: D form. Arg(Me) = CNC(=N)NCCC[C@H](N)C(=O)O; Hyp = O=C(O)[C@@H]1C[C@@H](O)CN1; azaGly = NNC(=O)O
Experiments:
dog KISS1R = target: T1, dog KISS1R (Canis lupus familiaris, UniProt A0A8I3S0V2); assay: Intracellular Ca2+ mobilization (fluorometric imaging plate reader), dog KISS1R; assay type: cell-based
T1 construct: expressed in transfected cells; host or cells: Chinese hamster ovary dihydrofolate reductase negative cells
T1 sequence (A0A8I3S0V2 1-382): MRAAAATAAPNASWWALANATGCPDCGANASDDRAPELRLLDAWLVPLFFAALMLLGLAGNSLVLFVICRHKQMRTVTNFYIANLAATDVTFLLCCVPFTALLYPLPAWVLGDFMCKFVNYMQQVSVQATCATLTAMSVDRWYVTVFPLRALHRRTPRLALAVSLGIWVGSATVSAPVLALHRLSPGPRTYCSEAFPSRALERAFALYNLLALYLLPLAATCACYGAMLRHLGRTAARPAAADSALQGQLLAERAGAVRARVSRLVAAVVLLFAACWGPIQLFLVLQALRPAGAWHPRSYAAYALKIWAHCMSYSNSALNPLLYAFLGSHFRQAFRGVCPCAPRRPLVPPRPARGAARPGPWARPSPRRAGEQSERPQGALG
Method: The effects of API-MA on intracellular Ca^2+ mobilization in KISS1R-expressing recombinant cells were evaluated by performing the fluorometric imaging plate reader assay.

CYP3A4 = CYP3A4 (Homo sapiens, UniProt P08684); assay: Inhibition of recombinant CYP3A4; assay type: in vitro ADME
Chain of CYP3A4 (P08684 whole entry): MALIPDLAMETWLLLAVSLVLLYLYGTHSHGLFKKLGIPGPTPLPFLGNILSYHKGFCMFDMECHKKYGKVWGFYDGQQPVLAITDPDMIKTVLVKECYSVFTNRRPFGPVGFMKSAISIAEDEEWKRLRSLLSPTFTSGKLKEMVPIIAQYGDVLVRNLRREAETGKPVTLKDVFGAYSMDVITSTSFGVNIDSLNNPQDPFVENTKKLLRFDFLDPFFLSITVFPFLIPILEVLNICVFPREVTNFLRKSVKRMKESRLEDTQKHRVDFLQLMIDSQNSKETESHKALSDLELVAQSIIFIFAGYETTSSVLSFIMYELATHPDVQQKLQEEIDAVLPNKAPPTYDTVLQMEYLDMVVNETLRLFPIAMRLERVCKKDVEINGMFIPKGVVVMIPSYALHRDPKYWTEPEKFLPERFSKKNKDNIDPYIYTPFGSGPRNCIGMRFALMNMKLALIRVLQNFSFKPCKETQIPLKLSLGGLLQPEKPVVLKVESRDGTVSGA

[1] = Pharmacokinetics in rats after SC and IV administration; settings: rat, in vivo, rats; for AUC(0-t): read-out: AUC(0-24); for level at 5 min: read-out: C5min; for Cmax: read-out: Cmax
Method: The PK of API-MA was studied in rats after SC and IV administration.
The PK linearity of API-MA was also investigated in rats after IV administration. The plasma C5min and AUC(0-24) values increased dose-proportionally. […] The elimination T1/2 values were 0.4 hours at 0.01 and 0.1 mg/kg and 0.5 hours at 1 mg/kg. These findings indicate that the PK of API-FB was linear in rats after single IV administration over the dose range of 0.01 to 1 mg/kg. The greater than dose-proportional increase in the first-pass kinetics with SC administration would indicate nonlinear PK in rats after SC administration.

[2] = Pharmacokinetics in dogs after SC and IV administration; settings: dog, in vivo, dogs; for AUC(0-t): read-out: AUC(0-24); for Cmax: read-out: Cmax; for bioavailability: read-out: BA (bioavailability)
Description: The PK of API-MA was studied in dogs after SC and IV administration.

[3] = Pharmacokinetics in monkeys after SC and IV administration; settings: monkey, in vivo, monkeys; for AUC(0-t): read-out: AUC(0-24); for bioavailability: read-out: BA (bioavailability); for Cmax: read-out: Cmax
Description: The PK of API-MA was studied in monkeys after SC and IV administration.

[4] = Multiple-dose PK, SC bolus then continuous 13-day SC infusion, healthy European men; settings: for Css / AUC(0-t) / Cmax: European men, geometric mean (% CV); for AUC(0-t): AUC (0-tlqc) (equal to AUC (0-24))
Method: Another study was a phase 1 clinical study of multiple-dose administration of API-MA. The study was conducted in France. It was a randomized, double-blind, placebo-controlled, parallel-group, ascending dose study of the safety, tolerability, plasma PK, and endocrine pharmacodynamic effects of API-MA administered as an SC bolus (0.1 mg) on day 1 followed by continuous SC infusion (i.e., 24 hr/day) from Day 2 to Day 14 (0.01, 0.1, 0.3, or 1.0 mg/day), which was expected to suppress testosterone.

[5] = Multiple-dose PK, 2-hour SC infusion once daily for 14 days, Japanese prostate cancer patients; assay type: in vivo, human; settings: for half-life / Cmax / Tmax / AUC / Vd/F / AUC(0-inf) / MRT: male, human, in vivo; for AUC: read-out: AUC (0-tau); for Vd/F: read-out: Vz/F
Method: It was an open-label, ascending dose study of API-MA administered via 2-hour SC infusion once daily for 14 days that was expected to suppress testosterone in Japanese hormone-naïve prostate cancer patients. Six patients received API-MA at doses of 0.5 mg (3 patients) and 1.0 mg (3 patients) a day for 14 days.
To measure plasma concentrations of API-MA, blood specimens were collected at the following times: Day 1 (predose and 2, 4, 6, 10 hours postdose); days 2, 4, 6, 8, 10, and 12 (predose); day 14 (predose and 2, 4, 6, 10, 24, 48 hours postdose); day 21; and day 28. To measure urinary excretion of API-MA, urine specimens were collected at the following times: Day 1 (predose and 0 to 4, 4 to 8, 8 to 12, 12 to 24 hours postdose) and day 14 (0 to 4, 4 to 8, 8 to 12, 12 to 24 hours postdose).

[6] = IV 1 mg/kg, read-out: T½ γ (elimination) (converted)
[7] = SC 0.1 to 10 mg/kg, read-out: Tmax, range over the tested SC doses
[8] = bolus IV 1 mg/kg, read-out: Cmax (C5 min)
[9] = male, human, plasma, sc, 0.1 mg, SC bolus 0.1 mg on Day 1, dosing group 0.01 mg/day
[10] = male, human, plasma, sc, 0.1 mg, SC bolus 0.1 mg on Day 1, dosing group 0.1 mg/day
[11] = male, human, plasma, sc, 0.1 mg, SC bolus 0.1 mg on Day 1, dosing group 0.3 mg/day
[12] = male, human, plasma, sc, 0.1 mg, SC bolus 0.1 mg on Day 1, dosing group 1.0 mg/day
[13] = Japanese prostate cancer patients, 2-hour SC infusion 0.5 mg/day, Day 1, mean
[14] = Japanese prostate cancer patients, 2-hour SC infusion 0.5 mg/day, Day 14, mean
[15] = Japanese prostate cancer patients, 2-hour SC infusion 1.0 mg/day, Day 1, mean
[16] = Japanese prostate cancer patients, 2-hour SC infusion 1.0 mg/day, Day 14, mean
[17] = sc, 0.5 mg/day, Japanese prostate cancer patients, 2-hour SC infusion 0.5 mg/day, Day 1, mean
[18] = sc, 0.5 mg/day, Japanese prostate cancer patients, 2-hour SC infusion 0.5 mg/day, Day 14, mean
[19] = sc, 1 mg/day, Japanese prostate cancer patients, 2-hour SC infusion 1.0 mg/day, Day 1, mean
[20] = sc, 1 mg/day, Japanese prostate cancer patients, 2-hour SC infusion 1.0 mg/day, Day 14, mean

Compound: CC(=O)O.CNC(=N)NCCC[C@H](NC(=O)[C@H](CC(C)C)NC(=O)NNC(=O)[C@H](Cc1ccccc1)NC(=O)[C@@H](NC(=O)[C@H](CC(N)=O)NC(=O)[C@@H]1C[C@@H](O)CN1C(=O)[C@@H](Cc1ccc(O)cc1)NC(C)=O)[C@@H](C)O)C(=O)N[C@@H](Cc1c[nH]c2ccccc12)C(N)=O [API-MA, 2-(N-Acetyl-D-tyrosyl-trans-4-hydroxy-L-prolyl-Lasparaginyl-L-threonyl-L-phenylalanyl)-hydrazinocarbonyl-L-leucyl-Nω-methyl-L-arginyl-L-tryptophanamide monoacetate] (Ac-[dY][Hyp]NTF[azaGly]L[Arg(Me)]W-NH2)
- EC50 (dog KISS1R): 2.01 nM
- Ratio of EC50 of API-MA to kisspeptin (45-54) (dog KISS1R; dog KISS1R): 1.2
- IC50 (CYP3A4): > 7.78 nM
- AUC(0-t) ([1]; iv, 0.01 mg/kg, IV 0.01 mg/kg, PK linearity study): 14 ng·h/mL
- AUC(0-t) ([1]; iv, 0.1 mg/kg, IV 0.1 mg/kg, PK linearity study): 140 ng·h/mL
- AUC(0-t) ([1]; iv, 1 mg/kg, IV 1 mg/kg, PK linearity study): 1390 ng·h/mL
- AUC(0-t) ([1]; iv, 1 mg/kg, IV 1 mg/kg): 1460 ng·h/mL
- AUC(0-t) ([1]; sc, 1 mg/kg, SC 1 mg/kg, mean ± SD (n = 5)): 804 ng·h/mL
- AUC(0-t) ([1]; sc, 10 mg/kg, SC 10 mg/kg, mean ± SD (n = 5)): 309 ng·h/mL
- level at 5 min ([1]; IV 0.01 mg/kg, PK linearity study): 24.1 ng/mL
- half-life ([1]; IV 0.01 mg/kg, PK linearity study, read-out: Elimination T1/2 (converted)): 0.4 h
- level at 5 min ([1]; IV 0.1 mg/kg, PK linearity study): 250 ng/mL
- half-life ([1]; IV 0.1 mg/kg, PK linearity study, read-out: Elimination T1/2 (converted)): 0.4 h
- level at 5 min ([1]; IV 1 mg/kg, PK linearity study): 2580 ng/mL
- Cmax at 5 min ([1]; IV 1 mg/kg, plasma concentration at 5 minutes, read-out: Cmax (C5 min)): 2670 ng/mL
- half-life ([1]; IV 1 mg/kg, read-out: T1/2 alpha phase (converted)): 0.5 h
- Cmax ([1]; SC 1 mg/kg, mean ± SD (n = 5)): 381 ng/mL
- bioavailability ([1]; SC 1 mg/kg, read-out: BA (bioavailability)): 55.3%
- Cmax ([1]; SC 10 mg/kg, mean ± SD (n = 5)): 285 ng/mL
- Tmax ([1]; SC, read-out: Tmax, range over all tested SC doses): 0.3 to 0.9 h
- AUC(0-t) ([2]; IV 1 mg/kg): 3090 ng·h/mL
- half-life [2, 6]: 3 h
- Cmax ([2]; SC 0.1 mg/kg, mean ± SD (n = 4)): 86.6 ng/mL
- AUC(0-t) ([2]; SC 0.1 mg/kg): 252 ng·h/mL
- bioavailability ([2]; SC 0.1 mg/kg): 81.5%
- AUC(0-t) ([2]; SC 1 mg/kg): 2600 ng·h/mL
- bioavailability ([2]; SC 1 mg/kg): 84%
- Cmax ([2]; SC 1 mg/kg): 883 ng/mL
- AUC(0-t) ([2]; SC 10 mg/kg): 28600 ng·h/mL
- bioavailability ([2]; SC 10 mg/kg): 92.7%
- Cmax ([2]; SC 10 mg/kg): 8840 ng/mL
- Tmax [2, 7]: 0.8 to 1 h
- Cmax at 5 min [2, 8]: 4250 ng/mL
- AUC(0-t) ([3]; IV 1 mg/kg): 3160 ng·h/mL
- half-life [3, 6]: 3.2 h
- AUC(0-t) ([3]; SC 0.1 mg/kg): 295 ng·h/mL
- bioavailability ([3]; SC 0.1 mg/kg): 94.9%
- Cmax ([3]; SC 0.1 mg/kg): 123 ng/mL
- AUC(0-t) ([3]; SC 1 mg/kg): 2790 ng·h/mL
- bioavailability ([3]; SC 1 mg/kg): 90.1%
- Cmax ([3]; SC 1 mg/kg): 1320 ng/mL
- AUC(0-t) ([3]; SC 10 mg/kg): 31600 ng·h/mL
- bioavailability ([3]; SC 10 mg/kg): 102%
- Cmax ([3]; SC 10 mg/kg): 12100 ng/mL
- Tmax [3, 7]: 0.3 to 0.4 h
- Cmax at 5 min [3, 8]: 5030 ng/mL
- half-life ([3]; multi-exponential decline after reaching Cmax, read-out: Mean terminal elimination T1/2 (converted)): ~2.6 h
- Css ([4]; continuous 13-day SC INF 0.01 mg/day (Days 2-14)): 20.2 (34) pg/mL
- Css ([4]; continuous 13-day SC INF 0.1 mg/day (Days 2-14)): 226 (17) pg/mL
- Css ([4]; continuous 13-day SC INF 0.3 mg/day (Days 2-14)): 708 (19) pg/mL
- Css ([4]; continuous 13-day SC INF 1.0 mg/day (Days 2-14)): 2280 (16) pg/mL
- CL/F ([4]; male, human, plasma, sc, 0.01 mg/day): 343 mL/min
- Tmax ([4]; male, human, plasma, sc, 0.1 mg): 0.5 h
- AUC(0-t) [4, 9]: 5.08 ng·h/mL
- AUC(0-t) [4, 10]: 4.28 ng·h/mL
- AUC(0-t) [4, 11]: 4.68 ng·h/mL
- AUC(0-t) [4, 12]: 4.05 ng·h/mL
- Cmax [4, 9]: 1.87 ng/mL
- Cmax [4, 10]: 1.59 ng/mL
- Cmax [4, 11]: 1.65 ng/mL
- Cmax [4, 12]: 1.29 ng/mL
- CL/F ([4]; male, human, plasma, sc, 0.1 mg/day): 308 mL/min
- CL/F ([4]; male, human, plasma, sc, 0.3 mg/day): 295 mL/min
- CL/F ([4]; male, human, plasma, sc, 1 mg/day): 305 mL/min
- CL/F [5, 13]: 13.4 L/h
- λz [5, 13]: 0.200 h⁻¹
- CL/F [5, 14]: 12.6 L/h
- λz [5, 14]: 0.198 h⁻¹
- CL/F [5, 15]: 13.6 L/h
- λz [5, 15]: 0.221 h⁻¹
- CL/F [5, 16]: 13.4 L/h
- λz [5, 16]: 0.205 h⁻¹
- half-life ([5]; days 1 and 14, both doses (0.5 and 1.0 mg/day), read-out: Mean T1/2): 3 to 4 h
- Cmax [5, 17]: 8.12 ng/mL
- Tmax [5, 17]: 2.11 h
- AUC [5, 17]: 36.5 ng·h/mL
- half-life ([5]; sc, 0.5 mg/day, Japanese prostate cancer patients, 2-hour SC infusion 0.5 mg/day, Day 1, mean, read-out: T1/2 (converted)): 3.48 h
- Vd/F [5, 17]: 66.9 L
- Cmax [5, 18]: 8.13 ng/mL
- Tmax [5, 18]: 2.08 h
- AUC [5, 18]: 39.1 ng·h/mL
- half-life ([5]; sc, 0.5 mg/day, Japanese prostate cancer patients, 2-hour SC infusion 0.5 mg/day, Day 14, mean, read-out: T1/2 (converted)): 3.5 h
- Vd/F [5, 18]: 63.5 L
- Cmax [5, 19]: 16 ng/mL
- Tmax [5, 19]: 2.11 h
- AUC [5, 19]: 70.2 ng·h/mL
- half-life ([5]; sc, 1 mg/day, Japanese prostate cancer patients, 2-hour SC infusion 1.0 mg/day, Day 1, mean, read-out: T1/2 (converted)): 3.15 h
- Vd/F [5, 19]: 61.6 L
- Cmax [5, 20]: 15.5 ng/mL
- Tmax [5, 20]: 2.11 h
- AUC [5, 20]: 71.2 ng·h/mL
- half-life ([5]; sc, 1 mg/day, Japanese prostate cancer patients, 2-hour SC infusion 1.0 mg/day, Day 14, mean, read-out: T1/2 (converted)): 3.38 h
- Vd/F [5, 20]: 65.7 L
- AUC(0-inf) ([5]; 0.5 mg/day, Day 1, mean): 36.8 ng·h/mL
- MRT ([5]; 0.5 mg/day, Day 1, mean): 4.78 h
- AUC(0-inf) ([5]; 1.0 mg/day, Day 1, mean): 70.6 ng·h/mL
- MRT ([5]; 1.0 mg/day, Day 1, mean): 4.64 h

Source: patent US11013780B2, “Methods of treating female infertility” (Myovant Sciences GmbH, priority 2016, dated 2021)
